Experimental data published in publication PMC6222781, “Structural Optimization of Foldamer-Dendrimer Conjugates as Multivalent Agents against the Toxic Effects of Amyloid Beta Oligomers” (Molecules : A Journal of Synthetic Chemistry and Natural …, 2018).

Columns and labels:
Aβ oligomers [1] = biological target: T1, Aβ oligomers (Homo sapiens, UniProt P05067); experiment: Sandwich ELISA binding of biotin-tagged conjugates to Aβ
T1 construct: Ser^26 depsipeptide iso-Aβ (1–42) was used; made in house; host or cells: chemical peptide synthesis (no expression host)
T1 sequence (P05067 672-713 limits assumed): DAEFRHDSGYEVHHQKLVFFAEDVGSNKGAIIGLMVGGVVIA
Text: To study the role of certain structure elements in the binding affinity, a set of new foldamer sequences were designed (Figure 2) and ligated to lysine-dendron scaffolds having a focal symmetry. This template with biotin affinity tag can be easily synthesized by solid phase peptide synthesis and immobilized on a streptavidin coated support such as the surface of the ELISA plate. Structural changes included fine-tuning the side-chain properties (2b–2d), changing the position of ionic residues (2e) and introducing bulky bicyclic side-chains (2f–2i).
The binding affinities of 2b–2i to Aβ oligomers were tested in ITC experiments. In such cases where the fitting failed due to low heat response or poor solubility, sandwich ELISA experiments were performed to enable the comparison of all conjugates (see Supporting Information for details).
The apparent dissociation constants for the complete set of new conjugates were calculated individually from the data of the ELISA experiments as well. Comparing the KD values of 2f–2i in this case, the replacement of ACHC to ABHC had only a minor effect on the Aβ binding. The cyclic β-amino acid ACHC not only provides the helical conformation of such a short foldamer but also protects the ionic residues from solvent upon binding due to its hydrophobicity.

Aβ oligomers [2] = biological target: T1, Aβ oligomers; experiment: Isothermal titration calorimetry (ITC) binding to Aβ oligomers; conditions: KD ITC, Table 1, PBS pH 7.4, 285 K, Aβ 100 µM in cell, ligand 250 µM in syringe, two independent site model
Protocol: The binding affinities of 2b–2i to Aβ oligomers were tested in ITC experiments.
In this work, Ser^26 depsipeptide iso-Aβ (1–42) was used, which was synthesized and purified as described previously. The lyophilized iso-Aβ (1–42) was dissolved in MilliQ water to a concentration of 1 mg mL^−1, sonicated for 3 min and the pH was set to 7.0 to initiate an O to N acyl migration, whereby the native sequence can be readily formed. The sample was incubated at room temperature for 10 min. Then the pH was set to 11 and the sample was kept at room temperature for additional 2 h. After the incubation, the Aβ stock solution was aliquoted and stored at −20 °C until use. To obtain Aβ oligomers, the 1 mg mL^−1 aliquot was diluted to a final concentration of 50 μM with 26.67 mM PBS and the pH was set to 7.4 with 1 M HCl. The sample was incubated at 37 °C for 3 h.
Isothermal calorimetric titrations were performed with a Microcal VP-ITC microcalorimeter in pH 7.4 PBS buffer solution. In individual titrations, 10 µL portions of the ligand containing solution were repeatedly injected from the computer-controlled 300-µL microsyringe at intervals of 300 s into the Aβ oligomer solution prepared in the same buffer as the ligand. All measurements were carried out at 285 K. The Aβ concentration in the cell was 100 µM and the total ligand concentration was 250 µM in the syringe and the titration was stopped when the precipitation of the Aβ aggregates became excessive. Control experiments were performed by injecting the ligand into a cell containing buffer with no target, and the heats of dilution were subtracted from those measured in the presence of Aβ. The experimental data were fitted to the two independent site binding models by using a nonlinear least-squares procedure, with ΔHb, ΔHb’, Kd, Kd’ ([…]), n and n’ (number of binding sites for monomer), as adjustable parameters.

Row | SMILES | Kd (Aβ oligomers [1]) [nM] | Kd (Aβ oligomers [2]; first binding stage) [nM] | Kd (Aβ oligomers [2]; second binding stage) [nM]
1 | CC1(C)[C@H]2C[C@H](NC(=O)[C@H]3CCCC[C@@H]3NC(=O)C[C@H](CCCNC(=N)N)NC(=O)[C@H]3CCCC[C@@H]3N)[C@@H](C(=O)N[C@@H](CC(=O)O)CC(=O)N[C@H]3CCCC[C@@H]3C(=O)NCC(=O)NCC(=O)N[C@@H](CSC3CC(=O)N(CCC(=O)NCCCC[C@H](NC(=O)CCN4C(=O)CC(SC[C@H](NC(=O)CNC(=O)CNC(=O)[C@H]5CCCC[C@@H]5NC(=O)C[C@H](CC(=O)O)NC(=O)[C@@H]5[C@@H](NC(=O)[C@H]6CCCC[C@@H]6NC(=O)C[C@H](CCCNC(=N)N)NC(=O)[C@H]6CCCC[C@@H]6N)C[C@H]6C[C@@H]5C6(C)C)C(N)=O)C4=O)C(=O)NCCCC[C@H](NC(=O)[C@H](CCCCNC(=O)CCN4C(=O)CC(SC[C@H](NC(=O)CNC(=O)CNC(=O)[C@H]5CCCC[C@@H]5NC(=O)C[C@H](CC(=O)O)NC(=O)[C@@H]5[C@@H](NC(=O)[C@H]6CCCC[C@@H]6NC(=O)C[C@H](CCCNC(=N)N)NC(=O)[C@H]6CCCC[C@@H]6N)C[C@H]6C[C@@H]5C6(C)C)C(N)=O)C4=O)NC(=O)CCN4C(=O)CC(SC[C@H](NC(=O)CNC(=O)CNC(=O)[C@H]5CCCC[C@@H]5NC(=O)C[C@H](CC(=O)O)NC(=O)[C@@H]5[C@@H](NC(=O)[C@H]6CCCC[C@@H]6NC(=O)C[C@H](CCCNC(=N)N)NC(=O)[C@H]6CCCC[C@@H]6N)C[C@H]6C[C@@H]5C6(C)C)C(N)=O)C4=O)C(=O)N[C@@H](CCCCNC(=O)CCCC[C@@H]4SC[C@@H]5NC(=O)N[C@@H]54)C(N)=O)C3=O)C(N)=O)[C@@H]1C2 (stereo partly drawn) [Compound 2h] | 1.35 ± 0.08 | 8.61 ± 5.64 | 79 ± 45.9
2 | CC1(C)[C@H]2C[C@H](N)[C@@H](C(=O)N[C@@H](CCCNC(=N)N)CC(=O)N[C@H]3CCCC[C@@H]3C(=O)N[C@H]3CCCC[C@@H]3C(=O)N[C@@H](CC(=O)O)CC(=O)N[C@H]3CCCC[C@@H]3C(=O)NCC(=O)NCC(=O)N[C@@H](CSC3CC(=O)N(CCC(=O)NCCCC[C@H](NC(=O)CCN4C(=O)CC(SC[C@H](NC(=O)CNC(=O)CNC(=O)[C@H]5CCCC[C@@H]5NC(=O)C[C@H](CC(=O)O)NC(=O)[C@H]5CCCC[C@@H]5NC(=O)[C@H]5CCCC[C@@H]5NC(=O)C[C@H](CCCNC(=N)N)NC(=O)[C@@H]5[C@@H](N)C[C@H]6C[C@@H]5C6(C)C)C(N)=O)C4=O)C(=O)NCCCC[C@H](NC(=O)[C@H](CCCCNC(=O)CCN4C(=O)CC(SC[C@H](NC(=O)CNC(=O)CNC(=O)[C@H]5CCCC[C@@H]5NC(=O)C[C@H](CC(=O)O)NC(=O)[C@H]5CCCC[C@@H]5NC(=O)[C@H]5CCCC[C@@H]5NC(=O)C[C@H](CCCNC(=N)N)NC(=O)[C@@H]5[C@@H](N)C[C@H]6C[C@@H]5C6(C)C)C(N)=O)C4=O)NC(=O)CCN4C(=O)CC(SC[C@H](NC(=O)CNC(=O)CNC(=O)[C@H]5CCCC[C@@H]5NC(=O)C[C@H](CC(=O)O)NC(=O)[C@H]5CCCC[C@@H]5NC(=O)[C@H]5CCCC[C@@H]5NC(=O)C[C@H](CCCNC(=N)N)NC(=O)[C@@H]5[C@@H](N)C[C@H]6C[C@@H]5C6(C)C)C(N)=O)C4=O)C(=O)N[C@@H](CCCCNC(=O)CCCC[C@@H]4SC[C@@H]5NC(=O)N[C@@H]54)C(N)=O)C3=O)C(N)=O)[C@@H]1C2 (stereo partly drawn) [Compound 2f] | 1.79 ± 0.09 | 19.3 ± 9.4 | 816 ± 467
3 | NCCCC[C@@H](CC(=O)N[C@H]1CCCC[C@@H]1C(=O)N[C@H]1CCCC[C@@H]1C(=O)N[C@@H](CC(=O)O)CC(=O)N[C@H]1CCCC[C@@H]1C(=O)NCC(=O)NCC(=O)N[C@@H](CSC1CC(=O)N(CCC(=O)NCCCC[C@H](NC(=O)CCN2C(=O)CC(SC[C@H](NC(=O)CNC(=O)CNC(=O)[C@H]3CCCC[C@@H]3NC(=O)C[C@H](CC(=O)O)NC(=O)[C@H]3CCCC[C@@H]3NC(=O)[C@H]3CCCC[C@@H]3NC(=O)C[C@H](CCCCN)NC(=O)[C@H]3CCCC[C@@H]3N)C(N)=O)C2=O)C(=O)NCCCC[C@H](NC(=O)[C@H](CCCCNC(=O)CCN2C(=O)CC(SC[C@H](NC(=O)CNC(=O)CNC(=O)[C@H]3CCCC[C@@H]3NC(=O)C[C@H](CC(=O)O)NC(=O)[C@H]3CCCC[C@@H]3NC(=O)[C@H]3CCCC[C@@H]3NC(=O)C[C@H](CCCCN)NC(=O)[C@H]3CCCC[C@@H]3N)C(N)=O)C2=O)NC(=O)CCN2C(=O)CC(SC[C@H](NC(=O)CNC(=O)CNC(=O)[C@H]3CCCC[C@@H]3NC(=O)C[C@H](CC(=O)O)NC(=O)[C@H]3CCCC[C@@H]3NC(=O)[C@H]3CCCC[C@@H]3NC(=O)C[C@H](CCCCN)NC(=O)[C@H]3CCCC[C@@H]3N)C(N)=O)C2=O)C(=O)N[C@@H](CCCCNC(=O)CCCC[C@@H]2SC[C@@H]3NC(=O)N[C@@H]32)C(N)=O)C1=O)C(N)=O)NC(=O)[C@H]1CCCC[C@@H]1N (stereo partly drawn) [Compound 2b] | 5.36 ± 1.42 | 53.2 ± 38.7 | 373 ± 104
4 | N=C(N)NCCC[C@@H](CC(=O)N[C@H]1CCCC[C@@H]1C(=O)N[C@H]1CCCC[C@@H]1C(=O)N[C@@H](CC(=O)O)CC(=O)N[C@H]1CCCC[C@@H]1C(=O)NCC(=O)NCC(=O)N[C@@H](CSC1CC(=O)N(CCC(=O)NCCCC[C@H](NC(=O)CCN2C(=O)CC(SC[C@H](NC(=O)CNC(=O)CNC(=O)[C@H]3CCCC[C@@H]3NC(=O)C[C@H](CC(=O)O)NC(=O)[C@H]3CCCC[C@@H]3NC(=O)[C@H]3CCCC[C@@H]3NC(=O)C[C@H](CCCNC(=N)N)NC(=O)[C@H]3CCCC[C@@H]3N)C(N)=O)C2=O)C(=O)NCCCC[C@H](NC(=O)[C@H](CCCCNC(=O)CCN2C(=O)CC(SC[C@H](NC(=O)CNC(=O)CNC(=O)[C@H]3CCCC[C@@H]3NC(=O)C[C@H](CC(=O)O)NC(=O)[C@H]3CCCC[C@@H]3NC(=O)[C@H]3CCCC[C@@H]3NC(=O)C[C@H](CCCNC(=N)N)NC(=O)[C@H]3CCCC[C@@H]3N)C(N)=O)C2=O)NC(=O)CCN2C(=O)CC(SC[C@H](NC(=O)CNC(=O)CNC(=O)[C@H]3CCCC[C@@H]3NC(=O)C[C@H](CC(=O)O)NC(=O)[C@H]3CCCC[C@@H]3NC(=O)[C@H]3CCCC[C@@H]3NC(=O)C[C@H](CCCNC(=N)N)NC(=O)[C@H]3CCCC[C@@H]3N)C(N)=O)C2=O)C(=O)N[C@@H](CCCCNC(=O)CCCC[C@@H]2SC[C@@H]3NC(=O)N[C@@H]32)C(N)=O)C1=O)C(N)=O)NC(=O)[C@H]1CCCC[C@@H]1N (stereo partly drawn) [Compound 2a] | 0.95 ± 0.06 | 27.6 ± 7.74 | 240 ± 68.7
